# Source: patent publication US12612395B2, “Rocaglate derivatives and uses thereof” (TRUSTEES OF BOSTON UNIVERSITY, priority 2023, dated 2026)
# Several values for one entry are separate records, joined by “and”; a condition that tells them apart may be missing. Equal values may be shown once. Read-outs that look alike come from different tables or passages of the source.
# How the values were obtained:
# DDX3X = biological target: T1, DDX3X (Homo sapiens, UniProt O00571); assay: PISA assay in GBM0308 cell lysates, DDX3X; type: binding; conditions: GBM0308 lysate, compound 10 μM, AMP-PNP and (AG)8 RNA added
# T1 construct: endogenous in cells; host or cells: GBM0308 glioblastoma stem cells (lysate)
# T1 sequence (O00571 whole entry): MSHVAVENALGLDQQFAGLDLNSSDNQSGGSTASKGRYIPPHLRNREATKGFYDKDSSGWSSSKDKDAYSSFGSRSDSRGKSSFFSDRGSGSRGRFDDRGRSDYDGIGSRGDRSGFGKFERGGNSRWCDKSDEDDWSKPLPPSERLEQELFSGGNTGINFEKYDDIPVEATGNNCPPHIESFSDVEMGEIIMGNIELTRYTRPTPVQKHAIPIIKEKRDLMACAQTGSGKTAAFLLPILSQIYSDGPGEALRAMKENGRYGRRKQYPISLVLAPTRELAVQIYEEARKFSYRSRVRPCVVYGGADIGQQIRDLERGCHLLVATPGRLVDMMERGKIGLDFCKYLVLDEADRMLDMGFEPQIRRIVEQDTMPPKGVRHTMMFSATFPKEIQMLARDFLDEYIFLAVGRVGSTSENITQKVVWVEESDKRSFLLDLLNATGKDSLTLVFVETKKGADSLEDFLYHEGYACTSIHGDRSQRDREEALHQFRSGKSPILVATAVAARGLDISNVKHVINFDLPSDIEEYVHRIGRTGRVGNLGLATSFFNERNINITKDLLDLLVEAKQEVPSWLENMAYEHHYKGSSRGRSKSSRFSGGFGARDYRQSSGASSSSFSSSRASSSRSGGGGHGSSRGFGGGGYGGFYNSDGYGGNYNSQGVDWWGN
# From the text: Derivatization-free target identification using a modified proteome integral solubility alteration (PISA) assay. The inventors next pursued proteome-wide target identification to better understand the target profiles of CSC-selective rocaglates. To enable cross-compound comparisons of target engagement, the inventors opted to use the Proteome Integral Solubility Alteration (PISA) assay,^29 a derivative of the mass spectrometry-based Cellular Thermal Shift Assay (MS-CETSA). In MS-CETSA,^30,31 target engagement is inferred through proteome-wide analysis of compound-induced changes to protein thermal stability; proteins with a shift in their half-maximal thermal denaturation temperature upon compound treatment are flagged as potential targets. The PISA assay obviates the need for MS-CETSA-derived thermal denaturation curves through curve integration by pooling of individual temperature points into a single “integral” sample for each treatment condition, thereby increasing throughput (FIG. 9). In contrast to MS-CETSA (which relies on curve comparisons), PISA determinations are performed by simply comparing soluble protein abundance levels between compound- and DMSO-treated samples. Importantly, protein fold-change measurements in PISA experiments generally scale with the thermal shift derived from CETSA experiments, and the magnitude of a thermal shift can inform on relative affinity between compounds and individual targets.^30,32-25 Maximal stability changes are protein-specific,^36 however, precluding estimations of preference for one target over another. Thus, PISA allows for simultaneous target profiling and comparisons of binding affinity between different compounds within a given target.
# Of note, we also detected stabilization of DDX3Y, a paralog which shares >90% sequence similarity with DDX3X.
# PISA assay in GBM0308 cell lysates: The PISA assay was performed in lysates as described by Gaetani and coworkers^S2 with slight modification. […] Lysate concentration was determined using a Pierce BCA Protein Assay Kit and adjusted to 2.0 mg/mL in lysis buffer. […]
# [1] = tested on: cap-dependent translation (FF cistron of FF-HCV-Ren); assay: In vitro translation assay, bicistronic FF-HCV-Ren mRNA reporter in Krebs-2 extracts; type: biochemical
# From the text: Given these observations, the inventors next sought to interrogate the effects of compound (−)-20 in secondary assays for both eIF4A and DDX3 engagement. […] While inherent differences between the FP assay conditions (e.g. probe affinity, protein mobility in FP buffer) preclude direct comparison of absolute AmP values across the two different proteins, the inventors noted that relative anti-CSC potencies for these compounds ((−)-7>(−)-5≈(−)-20) were similar to their relative degrees of clamping for DDX3X and eIF4A1. To follow up on these findings, the inventors performed in vitro translation experiments using a bicistronic mRNA reporter construct FF-HCV-Ren, where translation of the firefly luciferase (FF) cistron is cap-dependent, while translation of the Renilla luciferase (HCV-Ren) cistron is driven off an HCV-IRES, rendering translation of this cistron cap-independent.
# In vitro translation assays: In vitro translations were performed using 4 ng/μL of bicistronic FF-HCV-Ren/pA51 reporter mRNA and the indicated compound concentrations in Krebs-2 extracts at 30° C. for 1 h as described previously.^S10 Cap-dependent FLuc and cap-independent RLuc activities were assessed on a Berthold Lumat LB 9507 luminometer (Berthold Technologies). Curves were determined using a non-linear regression model on GraphPad Prism 8.4.0.
# [2] = FF cistron, Krebs-2 extracts, 30° C., 1 h, read-out: cap-dependent translation inhibition EC50
SMILES,"thermal stabilization of DDX3X (PISA), in words (DDX3X)","EC50 [1, 2]","EC50 ([1]; approximate value, read-out: translation inhibition EC50)"
"CONC(=O)[C@H]1[C@@H](O)[C@@]2(O)c3c(OC)cc(OC)cc3O[C@@]2(c2ccc(Br)cc2)[C@@H]1c1ccccc1 [(−)-7, SDS-1-021]",stabilized,–,–
"CONC(=O)[C@H]1[C@@H](O)[C@@]2(O)c3c(OC)cc(OC)cc3O[C@@]2(c2ccc(OC)cc2)[C@@H]1c1ccccc1 [(−)-5, CR-1-31b, reference compound]",–,215 nM and ~200 nM,–
"COc1cc(OC)c2c(c1)O[C@@]1(c3ccc(Br)cc3)[C@H](c3ccccc3)[C@@H](C(=O)NS(=O)(=O)N(C)C)[C@@H](O)[C@@]21O [(−)-20, (1R,2R,3S,3aR,8bS)-3a-(4-bromophenyl)-N—(N,N-dimethylsulfamoyl)-1,8b-dihydroxy-6,8-dimethoxy-3-phenyl-2,3,3a,8b-tetrahydro-1H-cyclopenta[b]benzofuran-2-carboxamide]",stabilized,937 nM,~1000 nM
